Experimental data published in ChEMBL document CHEMBL3046430, “Synthesis of some new 3,5-diamino-4-(4-fluorophenylazo)-1-aryl/heteroarylpyrazoles as antimicrobial agents” (2013).
≈ marks a conversion by molar mass, not a printed value. Calls of active or inactive are those of the source. No cut-off for these calls is given here.

Assays:
Format in all cases: functional
[1] = test system: Saccharomyces cerevisiae; assay: Antifungal activity against Saccharomyces cerevisiae after 7 days by agar well diffusion method
[2] = test system: Aspergillus niger; assay: Antifungal activity against Aspergillus niger after 7 days by agar well diffusion method
[3] = test system: Candida albicans; assay: Antifungal activity against Candida albicans after 7 days by agar well diffusion method
[4] = test system: Escherichia coli; assay: Antibacterial activity against Escherichia coli after 24 hr by agar well diffusion method
[5] = test system: Klebsiella aerogenes; assay: Antibacterial activity against Enterobacter aerogenes after 24 hr by agar well diffusion method
[6] = test system: Bacillus subtilis; assay: Antibacterial activity against Bacillus subtilis after 24 hr by agar well diffusion method
[7] = test system: Staphylococcus aureus; assay: Antibacterial activity against Staphylococcus aureus after 24 hr by agar well diffusion method
[8] = test system: Saccharomyces cerevisiae; assay: Antifungal activity against Saccharomyces cerevisiae at 2 to 64 ug/ml after 7 days by agar well diffusion method
[9] = test system: Aspergillus niger; assay: Antifungal activity against Aspergillus niger at 2 to 64 ug/ml after 7 days by agar well diffusion method
[10] = test system: Candida albicans; assay: Antifungal activity against Candida albicans at 2 to 64 ug/ml after 7 days by agar well diffusion method
[11] = test system: Escherichia coli; assay: Antibacterial activity against Escherichia coli at 2 to 64 ug/ml after 24 hr by agar well diffusion method
[12] = test system: Klebsiella aerogenes; assay: Antibacterial activity against Enterobacter aerogenes at 2 to 64 ug/ml after 24 hr by agar well diffusion method
[13] = test system: Bacillus subtilis; assay: Antibacterial activity against Bacillus subtilis at 2 to 64 ug/ml after 24 hr by agar well diffusion method
[14] = test system: Staphylococcus aureus; assay: Antibacterial activity against Staphylococcus aureus at 2 to 64 ug/ml after 24 hr by agar well diffusion method

SMILES	MIC [1]	MIC [2]	MIC ([3]; 168 h) [µg/mL]	MIC [4]	MIC [5]	MIC [6]	MIC [7]	Activity [8]	Activity [9]	diameter of the inhibition zone (DIZ) [10] [mm]	Activity [11]	diameter of the inhibition zone (DIZ) [12] [mm]	Activity [13]	Activity [14]	diameter of the inhibition zone (DIZ) [11] [mm]	diameter of the inhibition zone (DIZ) [13] [mm]	MIC ([1]; 168 h) [µg/mL]	diameter of the inhibition zone (DIZ) [8] [mm]	other results
Nc1nn(-c2nc3ccc(Cl)cc3s2)c(N)c1/N=N/c1ccc(F)cc1	inactive	inactive	2 (≈ 5.16 µM)	inactive	2 µg/mL (≈ 5.16 µM)	inactive	inactive	inactive	inactive	12	inactive	10	inactive	inactive	–	–	–	–	–
Cc1cc(-n2nc(N)c(/N=N/c3ccc(F)cc3)c2N)nc2ccccc12	inactive	inactive	64 (≈ 177 µM)	2 µg/mL (≈ 5.53 µM)	8 µg/mL (≈ 22.1 µM)	4 µg/mL (≈ 11.1 µM)	2 µg/mL (≈ 5.53 µM)	inactive	inactive	10	–	15	–	–	15	12	–	–	diameter of the inhibition zone (DIZ) [14]: 2.6 mm
Nc1nn(-c2nc3ccc(F)cc3s2)c(N)c1/N=N/c1ccc(F)cc1	inactive	–	–	inactive	4 µg/mL (≈ 10.8 µM)	4 µg/mL (≈ 10.8 µM)	inactive	inactive	–	–	inactive	11	–	inactive	–	12	–	–	MIC ([2]; 168 h): 2 µg/mL (≈ 5.39 µM); MIC [3]: inactive; diameter of the inhibition zone (DIZ) [9]: 14 mm; Activity [10]: inactive
Cc1ccc2nc(-n3nc(N)c(/N=N/c4ccc(F)cc4)c3N)sc2c1	inactive	inactive	2 (≈ 5.44 µM)	inactive	2 µg/mL (≈ 5.44 µM)	inactive	inactive	inactive	inactive	11	inactive	10.5	inactive	inactive	–	–	–	–	–
Nc1nn(-c2ccc(Cl)cc2)c(N)c1/N=N/c1ccc(F)cc1	inactive	inactive	2 (≈ 6.05 µM)	inactive	2 µg/mL (≈ 6.05 µM)	inactive	inactive	inactive	inactive	9	inactive	12	inactive	inactive	–	–	–	–	–
Nc1nn(-c2nc3ccccc3s2)c(N)c1/N=N/c1ccc(F)cc1	–	inactive	2 (≈ 5.66 µM)	8 µg/mL (≈ 22.6 µM)	2 µg/mL (≈ 5.66 µM)	6 µg/mL (≈ 17 µM)	inactive	–	inactive	12	–	14	–	inactive	12	9	6 (≈ 17 µM)	9	–
C=CC1=C(C(=O)O)N2C(=O)[C@@H](NC(=O)/C(=N\OCC(=O)O)c3csc(N)n3)[C@H]2SC1 [CEFIXIME]	inactive	inactive	–	2 µg/mL (≈ 4.41 µM)	2 µg/mL (≈ 4.41 µM)	4 µg/mL (≈ 8.82 µM)	2 µg/mL (≈ 4.41 µM)	inactive	inactive	–	–	15	–	–	14	2.8	–	–	MIC [3]: inactive; Activity [10]: inactive; diameter of the inhibition zone (DIZ) [14]: 2.9 mm
Nc1nn(-c2ccc([N+](=O)[O-])cc2[N+](=O)[O-])c(N)c1/N=N/c1ccc(F)cc1	–	–	2 (≈ 5.18 µM)	2 µg/mL (≈ 5.18 µM)	2 µg/mL (≈ 5.18 µM)	4 µg/mL (≈ 10.4 µM)	inactive	–	–	11	–	13	–	inactive	13	10	8 (≈ 20.7 µM)	12	MIC ([2]; 168 h): 2 µg/mL (≈ 5.18 µM); diameter of the inhibition zone (DIZ) [9]: 10 mm
Cc1cc(C)nc(-n2nc(N)c(/N=N/c3ccc(F)cc3)c2N)n1	–	inactive	2 (≈ 6.13 µM)	inactive	8 µg/mL (≈ 24.5 µM)	inactive	16 µg/mL (≈ 49 µM)	–	inactive	9	inactive	9	inactive	–	–	–	8 (≈ 24.5 µM)	10	diameter of the inhibition zone (DIZ) [14]: 4.5 mm
OC(Cn1cncn1)(Cn1cncn1)c1ccc(F)cc1F [FLUCONAZOLE]	–	–	2 (≈ 6.53 µM)	inactive	inactive	inactive	inactive	–	–	10	inactive	–	inactive	inactive	–	–	4 (≈ 13.1 µM)	12	MIC ([2]; 168 h): 2 µg/mL (≈ 6.53 µM); diameter of the inhibition zone (DIZ) [9]: 13 mm; Activity [12]: inactive
Nc1nn(-c2ccccc2)c(N)c1/N=N/c1ccc(F)cc1	–	inactive	2 (≈ 6.75 µM)	2 µg/mL (≈ 6.75 µM)	32 µg/mL (≈ 108 µM)	8 µg/mL (≈ 27 µM)	inactive	–	inactive	7	–	12	–	inactive	12	10	4 (≈ 13.5 µM)	12	–
